The numbers were not newly measured in patent US6372423B1, “Method for stabilizing platelets” (Dade Behring Marburg GmbH, priority 1996, dated 2002), which cites them from elsewhere.

Where a name gives a salt, the structure may show the parent alone.

For this data set the following is noted: intravenous administration of 0.8 mg per kg and hour.

Regarding `CCN(CCO)CCCC(C)Nc1ccnc2cc(Cl)ccc12` (stereo not shown) [hydroxychloroquine sulfate], the Toxicological assessment result was “toxicologically harmless”.
